Laboratory results: the NIST ThermoML archive (doi:10.1016/j.tca.2011.02.004)
Numbers after ± are expanded uncertainties.

Columns and labels:
[1] = 101.3 kPa, Liquid; for speed of sound: Linear variable-path acoustic interferometer; for mass density: Pycnometric method
[2] = xn = mol fraction of the nth substance listed; settings: 101 kPa, Liquid; for speed of sound: Linear variable-path acoustic interferometer; for mass density: Pycnometric method

CCN(CC)c1ccccc1 [N,N-diethylaniline]
[1]
Settings	mass density [kg/m3]	speed of sound [m/s]
303.15 K	926.2 ± 0.3	1434 ± 3
313.15 K	917.6 ± 0.3	1396 ± 3
323.15 K	909.2 ± 0.4	1358 ± 3

CCN(CC)c1ccccc1 [N,N-diethylaniline] + C1CCOC1
[2]
Settings	mass density, 303.15 K [kg/m3]	mass density, 313.15 K [kg/m3]	mass density, 323.15 K [kg/m3]	speed of sound, 303.15 K [m/s]	speed of sound, 313.15 K [m/s]	speed of sound, 323.15 K [m/s]
x2 = 0	926.2 ± 0.3	917.6 ± 0.3	909.2 ± 0.4	1434 ± 3	1396 ± 3	1358 ± 3
x2 = 0.0933	923.9 ± 0.3	915.7 ± 0.3	907.8 ± 0.4	1428 ± 3	1390 ± 3	1354 ± 3
x2 = 0.1907	921.2 ± 0.3	913.3 ± 0.3	905.7 ± 0.4	1418 ± 3	1379 ± 3	1343 ± 3
x2 = 0.2899	918.2 ± 0.3	910.4 ± 0.3	903 ± 0.4	1405 ± 3	1366 ± 3	1330 ± 3
x2 = 0.3879	914.9 ± 0.3	907.1 ± 0.3	899.6 ± 0.4	1390 ± 3	1351 ± 3	1315 ± 2
x2 = 0.4892	910.8 ± 0.3	903.2 ± 0.3	895.3 ± 0.4	1372 ± 3	1333 ± 3	1296 ± 2
x2 = 0.5937	906 ± 0.3	898.4 ± 0.3	890.5 ± 0.4	1352 ± 3	1312 ± 2	1275 ± 2
x2 = 0.6904	900.9 ± 0.3	893.1 ± 0.3	885.1 ± 0.4	1331 ± 3	1291 ± 2	1252 ± 2
x2 = 0.7948	894.3 ± 0.3	886.2 ± 0.3	878.1 ± 0.3	1307 ± 2	1265 ± 2	1226 ± 2
x2 = 0.8935	886.9 ± 0.3	877.9 ± 0.3	869.2 ± 0.3	1283 ± 2	1240 ± 2	1200 ± 2

CCN(CC)c1ccccc1 [N,N-diethylaniline] + CC(C)OC(C)C
[2]
Settings	mass density, 303.15 K [kg/m3]	mass density, 313.15 K [kg/m3]	mass density, 323.15 K [kg/m3]	speed of sound, 303.15 K [m/s]	speed of sound, 313.15 K [m/s]	speed of sound, 323.15 K [m/s]
x2 = 0	926.2 ± 0.3	917.6 ± 0.3	909.2 ± 0.4	1434 ± 3	1396 ± 3	1358 ± 3
x2 = 0.078	914.4 ± 0.3	906.8 ± 0.3	899 ± 0.4	1403 ± 3	1367 ± 3	1332 ± 3
x2 = 0.1606	901 ± 0.3	893.6 ± 0.3	886.6 ± 0.4	1370 ± 3	1336 ± 3	1302 ± 2
x2 = 0.2581	884 ± 0.3	876.7 ± 0.3	870.2 ± 0.3	1330 ± 3	1296 ± 2	1261 ± 2
x2 = 0.3421	868.5 ± 0.3	861.1 ± 0.3	854.7 ± 0.3	1295 ± 2	1260 ± 2	1224 ± 2
x2 = 0.4336	850.7 ± 0.3	843 ± 0.3	836.7 ± 0.3	1255 ± 2	1218 ± 2	1182 ± 2
x2 = 0.5341	829.8 ± 0.3	822.1 ± 0.3	815.7 ± 0.3	1209 ± 2	1171 ± 2	1134 ± 2
x2 = 0.6457	804.7 ± 0.3	797.1 ± 0.3	790.6 ± 0.3	1156 ± 2	1117 ± 2	1080 ± 2
x2 = 0.7545	778.3 ± 0.3	770.6 ± 0.3	764 ± 0.3	1103 ± 2	1063 ± 2	1023 ± 2
x2 = 0.8762	746.7 ± 0.3	738.3 ± 0.3	730.8 ± 0.3	1042 ± 2	1000 ± 2	958 ± 2

CN(C)c1ccccc1 [N,N-dimethylaniline]
[1]
Settings	mass density [kg/m3]	speed of sound [m/s]
303.15 K	948.4 ± 0.3	1468 ± 3
313.15 K	939.8 ± 0.3	1431 ± 3
323.15 K	931.5 ± 0.4	1393 ± 3

CN(C)c1ccccc1 [N,N-dimethylaniline] + C1CCOC1
[2]
Settings	mass density, 303.15 K [kg/m3]	mass density, 313.15 K [kg/m3]	mass density, 323.15 K [kg/m3]	speed of sound, 303.15 K [m/s]	speed of sound, 313.15 K [m/s]	speed of sound, 323.15 K [m/s]
x2 = 0	948.4 ± 0.3	939.8 ± 0.3	931.5 ± 0.4	1468 ± 3	1431 ± 3	1393 ± 3
x2 = 0.0683	945.8 ± 0.3	937.5 ± 0.3	929.5 ± 0.4	1459 ± 3	1424 ± 3	1391 ± 3
x2 = 0.1883	940.8 ± 0.3	932.9 ± 0.3	925.2 ± 0.4	1439 ± 3	1408 ± 3	1376 ± 3
x2 = 0.2797	936.7 ± 0.3	928.6 ± 0.3	921.1 ± 0.4	1423 ± 3	1391 ± 3	1359 ± 3
x2 = 0.389	931 ± 0.3	922.9 ± 0.3	915.3 ± 0.4	1403 ± 3	1370 ± 3	1337 ± 3
x2 = 0.4723	926.2 ± 0.3	918 ± 0.3	910.2 ± 0.4	1387 ± 3	1354 ± 3	1319 ± 2
x2 = 0.5757	919.3 ± 0.3	911.1 ± 0.3	903 ± 0.4	1365 ± 3	1331 ± 3	1294 ± 2
x2 = 0.6813	910.9 ± 0.3	902.8 ± 0.3	894.4 ± 0.4	1340 ± 3	1304 ± 2	1267 ± 2
x2 = 0.7866	901.1 ± 0.3	893.2 ± 0.3	884.2 ± 0.4	1314 ± 2	1276 ± 2	1238 ± 2
x2 = 0.8909	890.1 ± 0.3	881.4 ± 0.3	871.7 ± 0.3	1287 ± 2	1246 ± 2	1206 ± 2

CN(C)c1ccccc1 [N,N-dimethylaniline] + CC(C)OC(C)C
[2]
Settings	mass density, 303.15 K [kg/m3]	mass density, 313.15 K [kg/m3]	mass density, 323.15 K [kg/m3]	speed of sound, 303.15 K [m/s]	speed of sound, 313.15 K [m/s]	speed of sound, 323.15 K [m/s]
x2 = 0	948.4 ± 0.3	939.8 ± 0.3	931.5 ± 0.4	1468 ± 3	1431 ± 3	1393 ± 3
x2 = 0.0741	932.6 ± 0.3	924.8 ± 0.3	916.9 ± 0.4	1430 ± 3	1396 ± 3	1360 ± 3
x2 = 0.1589	914 ± 0.3	906.5 ± 0.3	898.6 ± 0.4	1385 ± 3	1353 ± 3	1318 ± 2
x2 = 0.2428	895.3 ± 0.3	887.5 ± 0.3	879.6 ± 0.4	1342 ± 3	1311 ± 2	1277 ± 2
x2 = 0.3355	874.3 ± 0.3	866.2 ± 0.3	858.3 ± 0.4	1296 ± 2	1262 ± 2	1229 ± 2
x2 = 0.4294	852.6 ± 0.3	844.2 ± 0.3	836.3 ± 0.4	1250 ± 2	1214 ± 2	1182 ± 2
x2 = 0.5338	827.8 ± 0.3	819.2 ± 0.3	811.5 ± 0.3	1199 ± 2	1161 ± 2	1128 ± 2
x2 = 0.6362	802.8 ± 0.3	794.1 ± 0.3	786.4 ± 0.3	1149 ± 2	1112 ± 2	1078 ± 2
x2 = 0.7466	775.2 ± 0.3	766.4 ± 0.3	758.5 ± 0.3	1096 ± 2	1059 ± 2	1024 ± 2
x2 = 0.8676	744.8 ± 0.3	735.7 ± 0.3	726.9 ± 0.3	1038 ± 2	1000 ± 2	961 ± 2

CC(C)OC(C)C [diisopropyl ether]
[1]
Settings	mass density [kg/m3]	speed of sound [m/s]
303.15 K	712.9 ± 0.3	976 ± 2
313.15 K	702.5 ± 0.3	932 ± 2
323.15 K	691.9 ± 0.3	889 ± 2

CC(C)OC(C)C [diisopropyl ether] + CCN(CC)c1ccccc1
[2], x1 = 1
Settings	mass density [kg/m3]	speed of sound [m/s]
303.15 K	712.9 ± 0.3	976 ± 2
313.15 K	702.5 ± 0.3	932 ± 2
323.15 K	691.9 ± 0.3	889 ± 2

CC(C)OC(C)C [diisopropyl ether] + CN(C)c1ccccc1
[2], x1 = 1
Settings	mass density [kg/m3]	speed of sound [m/s]
303.15 K	712.9 ± 0.3	976 ± 2
313.15 K	702.5 ± 0.3	932 ± 2
323.15 K	691.9 ± 0.3	889 ± 2

C1CCOC1 [tetrahydrofuran]
[1]
Settings	mass density [kg/m3]	speed of sound [m/s]
303.15 K	876.9 ± 0.3	1254 ± 2
313.15 K	865.7 ± 0.3	1207 ± 2
323.15 K	854.8 ± 0.3	1165 ± 2

C1CCOC1 [tetrahydrofuran] + CCN(CC)c1ccccc1
[2], x1 = 1
Settings	mass density [kg/m3]	speed of sound [m/s]
303.15 K	876.9 ± 0.3	1254 ± 2
313.15 K	865.7 ± 0.3	1207 ± 2
323.15 K	854.8 ± 0.3	1165 ± 2

C1CCOC1 [tetrahydrofuran] + CN(C)c1ccccc1
[2], x1 = 1
Settings	mass density [kg/m3]	speed of sound [m/s]
303.15 K	876.9 ± 0.3	1254 ± 2
313.15 K	865.7 ± 0.3	1207 ± 2
323.15 K	854.8 ± 0.3	1165 ± 2
